Source: ChEMBL document CHEMBL5550184, “Structure-activity relationships of middle-size cyclic peptides, KRAS inhibitors derived from an mRNA display” (Bioorg Med Chem, 2024)
Positions of bridges follow the written chain, without caps; N, C: chain ends. Non-standard residues stand in square brackets, D forms with d. Residues, ends and D or L forms follow the SMILES beside them. *: point of attachment. hPhe(3-Cl-4-CF3) = N[C@@H](CCc1ccc(C(F)(F)F)c(Cl)c1)C(=O)O; NMeGly(cPent) = CN[C@H](C(=O)O)C1CCCC1; NMeCha = CN[C@@H](CC1CCCCC1)C(=O)O; NMeChg = CN[C@H](C(=O)O)C1CCCCC1; NMeD = CN[C@@H](CC(=O)O)C(=O)O; NMeL = CN[C@@H](CC(C)C)C(=O)O; NMeAc5c = CNC1(C(=O)O)CCCC1; Morpholide = C1CN(*)CCO1; NMeA = CN[C@@H](C)C(=O)O; Piperidide = C1CCN(*)CC1; Ac5c = NC1(C(=O)O)CCCC1; Aze = O=C(O)[C@@H]1CCN1; Sar = CNCC(=O)O

What was measured:
[1] = system: GTPase KRas (Homo sapiens), P01116 [G12D]; assay: Binding affinity to biotinylated KRAS G12D mutant (unknown origin) assessed as Koff incubated for 120 mins by SPR analysis
Sequence of GTPase KRas (Homo sapiens), P01116 [G12D] (P01116 whole entry G12D, looked up): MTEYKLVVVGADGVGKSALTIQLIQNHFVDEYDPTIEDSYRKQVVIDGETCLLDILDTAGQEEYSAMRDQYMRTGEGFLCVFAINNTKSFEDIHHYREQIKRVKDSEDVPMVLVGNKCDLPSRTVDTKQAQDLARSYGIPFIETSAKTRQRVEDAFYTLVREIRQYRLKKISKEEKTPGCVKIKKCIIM

[2] = Apparent permeability in human Caco-2 cells incubated for 180 mins by LC-MS/MS method; format: ADME, cell-based
[3] = system: GTPase KRas (Homo sapiens), P01116 [G12D]; assay: Binding affinity to biotinylated KRAS G12D mutant (unknown origin) assessed as Kon incubated for 120 mins by SPR analysis
[4] = system: ASPC1; assay: Cytotoxicity against human AsPC1 cells assessed as reduction in cell viability incubated for 7 days by CellTiterGlo Luminescent Cell Viability Assay; format: functional, cell-based; conditions: ASPC1, 168 h
[5] = Inhibition of biotin-tagged KRAS G12D mutant (unknown origin) to recombinant His-tagged SOS1 (unknown origin) protein-protein interaction incubated for 120 mins by AlphaLISA method; set-up: species or system Homo sapiens
[6] = target: GTPase KRas (Homo sapiens, UniProt P01116, G12D); assay: Binding affinity to biotinylated KRAS G12D mutant (unknown origin) incubated for 120 mins by SPR analysis
Sequence of GTPase KRas (P01116 whole entry G12D): as the sequence (P01116 whole entry G12D, looked up) above

[7] = Oral bioavailability in Cynomolgus monkey at 15 mg/kg measured upto 48 hrs by LC-MS/MS analysis; format: ADME, organism-based, Macaca fascicularis; conditions: in vivo
[8] = Half-life in BALB/c nude mouse at 20 mg/kg, po measured upto 24 hrs by LC-MS/MS analysis; format: ADME, organism-based; conditions: in vivo
[9] = Clearance in Cynomolgus monkey at 0.167 mg/kg, iv measured upto 24 hrs by LC-MS/MS analysis; format: ADME, organism-based, Macaca fascicularis; conditions: in vivo
[10] = Metabolic stability in rat liver microsomes assessed as intrinsic clearance per mg protein at 0.2 uM measured upto 30 mins by LC-MS/MS analysis; format: ADME, Microsome; conditions: read-out: CLH
[11] = Half-life in Wistar Hannover rat at 10 mg/kg, po measured upto 48 hrs by LC-MS/MS analysis; format: ADME, organism-based; conditions: in vivo
[12] = Volume of distribution at steady state in BALB/c nude mouse at 1 mg/kg, iv measured upto 24 hrs by LC-MS/MS analysis; format: ADME, organism-based; conditions: in vivo, read-out: Vdss
[13] = AUCinfinity in BALB/c nude mouse at 20 mg/kg, po measured upto 24 hrs by LC-MS/MS analysis; format: ADME, organism-based; conditions: BALB/c nude, in vivo
[14] = Metabolic stability in human liver microsomes assessed as intrinsic clearance per mg protein at 0.2 uM measured upto 30 mins by LC-MS/MS analysis; format: ADME, Microsome; conditions: read-out: CLH
[15] = AUCinfinity in Wistar Hannover rat at 1 mg/kg, iv measured upto 24 hrs by LC-MS/MS analysis; format: ADME, organism-based; conditions: in vivo
[16] = Oral bioavailability in Wistar Hannover rat at 10 mg/kg measured upto 48 hrs by LC-MS/MS analysis; format: ADME, organism-based; conditions: in vivo
[17] = Clearance in Wistar Hannover rat at 1 mg/kg, iv measured upto 24 hrs by LC-MS/MS analysis; format: ADME, organism-based; conditions: in vivo
[18] = Half-life in Cynomolgus monkey at 15 mg/kg, po measured upto 48 hrs by LC-MS/MS analysis; format: ADME, organism-based, Macaca fascicularis; conditions: in vivo
[19] = AUCinfinity in Cynomolgus monkey at 15 mg/kg, po measured upto 48 hrs by LC-MS/MS analysis; format: ADME, organism-based, Macaca fascicularis; conditions: in vivo
[20] = Clearance in BALB/c nude mouse at 1 mg/kg, iv measured upto 24 hrs by LC-MS/MS analysis; format: ADME, organism-based; conditions: in vivo
[21] = AUCinfinity in BALB/c nude mouse at 1 mg/kg, iv measured upto 24 hrs by LC-MS/MS analysis; format: ADME, organism-based; conditions: BALB/c nude, in vivo
[22] = Oral bioavailability in BALB/c nude mouse at 20 mg/kg measured upto 24 hrs by LC-MS/MS analysis; format: ADME, organism-based; conditions: BALB/c nude, in vivo
[23] = Metabolic stability in monkey liver microsomes assessed as intrinsic clearance per mg protein at 0.2 uM measured upto 30 mins by LC-MS/MS analysis; format: ADME, Macaca mulatta, Microsome; conditions: rhesus monkey, read-out: CLH
[24] = Half-life in Cynomolgus monkey at 0.167 mg/kg, iv measured upto 24 hrs by LC-MS/MS analysis; format: ADME, organism-based, Macaca fascicularis; conditions: in vivo
[25] = AUCinfinity in Wistar Hannover rat at 10 mg/kg, po measured upto 48 hrs by LC-MS/MS analysis; format: ADME, organism-based; conditions: in vivo
[26] = Metabolic stability in mouse liver microsomes assessed as intrinsic clearance per mg protein at 0.2 uM measured upto 30 mins by LC-MS/MS analysis; format: ADME, Microsome; conditions: read-out: CLH
[27] = AUCinfinity in Cynomolgus monkey at 0.167 mg/kg, iv measured upto 24 hrs by LC-MS/MS analysis; format: ADME, organism-based, Macaca fascicularis; conditions: in vivo
[28] = Volume of distribution at steady state in Wistar Hannover rat at 1 mg/kg, iv measured upto 24 hrs by LC-MS/MS analysis; format: ADME, organism-based; conditions: Wistar Hannover, in vivo, read-out: Vdss
[29] = Volume of distribution at steady state in Cynomolgus monkey at 0.167 mg/kg, iv measured upto 24 hrs by LC-MS/MS analysis; format: ADME, organism-based, Macaca fascicularis; conditions: in vivo, read-out: Vdss
[30] = Half-life in BALB/c nude mouse at 1 mg/kg, iv measured upto 24 hrs by LC-MS/MS analysis; format: ADME, organism-based; conditions: in vivo
[31] = Half-life in Wistar Hannover rat at 1 mg/kg, iv measured upto 24 hrs by LC-MS/MS analysis; format: ADME, organism-based; conditions: Wistar Hannover, in vivo

SMILES: CC[C@H](C)[C@@H]1NC(=O)C2(CCCC2)N(C)C(=O)C[C@@H](C(=O)N2CCCCC2)N(C)C(=O)[C@H](C2CCCCC2)N(C)C(=O)C2(CCCC2)NC(=O)[C@@H]2CCCN2C(=O)[C@H](CCc2ccc(C(F)(F)F)c(Cl)c2)NC(=O)CN(C)C(=O)[C@H](CC2CCCCC2)N(C)C(=O)CN(C)C(=O)CN(C)C1=O ([NMeAc5c]I[Sar][Sar][NMeCha][Sar][hPhe(3-Cl-4-CF3)]P[Ac5c][NMeChg][NMeD]-Piperidide; lactam N-11)
- K [1]: 2.4 10^-4/s
- Papp at 3 h [2]: 0.62 ×10⁻⁶ cm/s
- K [3]: 3.8 10^5/Ms
- IC50 [4]: 65 nM
- IC50 [5]: < 2 nM
- Kd [6]: 0.64 nM

SMILES: CC[C@H](C)[C@@H]1NC(=O)[C@H](CC2CCCCC2)N(C)C(=O)C[C@@H](C(=O)N2CCCCC2)N(C)C(=O)[C@H](C2CCCCC2)N(C)C(=O)C2(CCCC2)NC(=O)[C@@H]2CCCN2C(=O)[C@H](CCc2ccc(C(F)(F)F)c(Cl)c2)NC(=O)CN(C)C(=O)[C@H](CC2CCCCC2)N(C)C(=O)CN(C)C(=O)CN(C)C1=O ([NMeCha]I[Sar][Sar][NMeCha][Sar][hPhe(3-Cl-4-CF3)]P[Ac5c][NMeChg][NMeD]-Piperidide; lactam N-11)
- K [1]: 2.6 10^-4/s
- Papp at 3 h [2]: 0.2 ×10⁻⁶ cm/s
- K [3]: 1 10^5/Ms
- IC50 [4]: 210 nM
- IC50 [5]: < 2 nM
- Kd [6]: 2.5 nM

SMILES: CC[C@H](C)[C@@H]1NC(=O)[C@H](CC(C)C)N(C)C(=O)C[C@@H](C(=O)N2CCOCC2)N(C)C(=O)[C@H](C2CCCC2)N(C)C(=O)C2(CCCC2)NC(=O)[C@@H]2CCCN2C(=O)[C@H](CCc2ccc(C(F)(F)F)c(Cl)c2)NC(=O)CN(C)C(=O)[C@H](CC2CCCCC2)N(C)C(=O)[C@@H]2CCN2C(=O)[C@H](C)N(C)C1=O ([NMeL]I[NMeA][Aze][NMeCha][Sar][hPhe(3-Cl-4-CF3)]P[Ac5c][NMeGly(cPent)][NMeD]-Morpholide; lactam N-11)
- F [7]: 7.2%
- half-life [8]: 4.16 h
- clearance [9]: 4.3 mL/min/kg
- Papp at 3 h [2]: 1.74 ×10⁻⁶ cm/s
- microsomal CLint at 0.2 µM [10]: 28 µL/min/mg
- half-life [11]: 3.96 h
- Vd [12]: 3 L/kg
- AUC(0-inf) [13]: 3880 ng·h/mL
- microsomal CLint at 0.2 µM [14]: 26 µL/min/mg
- AUC(0-inf) [15]: 2140 ng·h/mL
- bioavailability [16]: 21%
- clearance [17]: 7.81 mL/min/kg
- half-life [18]: 7.71 h
- AUC [19]: 12500 ng·h/mL
- clearance [20]: 12.4 mL/min/kg
- AUC(0-inf) [21]: 1350 ng·h/mL
- IC50 [4]: 4.8 nM
- bioavailability [22]: 14%
- microsomal CLint at 0.2 µM [23]: 43 µL/min/mg
- half-life [24]: 8.14 h
- AUC(0-inf) [25]: 3520 ng·h/mL
- microsomal CLint at 0.2 µM [26]: 27 µL/min/mg
- IC50 [5]: < 2 nM
- AUC [27]: 673 ng·h/mL
- Kd [6]: 0.18 nM
- Vd [28]: 0.82 L/kg
- Vd [29]: 0.37 L/kg
- half-life [30]: 5.98 h
- half-life [31]: 5.57 h

SMILES: CC[C@H](C)[C@@H]1NC(=O)[C@H](CC(C)C)N(C)C(=O)C[C@@H](C(=O)N2CCCCC2)N(C)C(=O)[C@H](C2CCCCC2)N(C)C(=O)C2(CCCC2)NC(=O)[C@@H]2CCCN2C(=O)[C@H](CCc2ccc(C(F)(F)F)c(Cl)c2)NC(=O)CN(C)C(=O)[C@H](CC2CCCCC2)N(C)C(=O)CN(C)C(=O)CN(C)C1=O ([NMeL]I[Sar][Sar][NMeCha][Sar][hPhe(3-Cl-4-CF3)]P[Ac5c][NMeChg][NMeD]-Piperidide; lactam N-11)
- K [1]: 2.5 10^-4/s
- Papp at 3 h [2]: 0.71 ×10⁻⁶ cm/s
- K [3]: 7.8 10^5/Ms
- IC50 [4]: 40 nM
- IC50 [5]: < 2 nM
- Kd [6]: 0.32 nM
